Eight compounds from PubChem BioAssay (NCI) can be followed below.

Holding throughout (assay): inhibition of tumour cell growth, NCI panel, 48 h
The subject of experiment [1] is A498 renal.
The subject of experiment [2] is ACHN renal.
The test system of experiment [3] is HCT-116 colon.
The subject of experiment [4] is HOP-62 NSCLC.
Experiment [5] deals with MCF7 breast.
Experiment [6] has as its system NCI-H460 lung.
The subject of experiment [7] is OVCAR-8 ovarian.
In experiment [8] the test system is SK-MEL-5 melanoma.
Experiment [9] has as its system SN12C renal.
Experiment [10] relates to U251 CNS.

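Dose response: 5 concentrations. Exposure: 48 h. Format: 96-well plates. Endpoint: linear interpolation; highest concentration if not reached. GI50 is the concentration that inhibits growth by half. Definition used: TGI = concentration required for complete inhibition of growth.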 Some results are limits rather than exact numbers.

With `Clc1cc(Cl)c(OCC#CI)cc1Cl`, the GI50 was 13700 nM in experiment [1]; 3010 nM in experiment [2]; 1750 nM in experiment [3]; 4080 nM in experiment [4]; 1690 nM in [5]; 15500 nM in experiment [6]. The GI50 in experiment [7] is 3390 nM; in [8], 5930 nM; in experiment [9], 10100 nM; in experiment [10], 15400 nM. Besides, the TGI in experiment [1] came out at 26.6 µM; in [2], 12 µM; in experiment [3], 3.47 µM; in experiment [4], 14.2 µM; in experiment [5] it was 3.58 µM; in experiment [6], 30.9 µM. The TGI in experiment [7] is 13.1 µM; in experiment [8], 18.9 µM; in experiment [9], 23 µM; in [10] it was 29.6 µM.

For the compound `COc1ccc(-c2n[nH]nc2-c2cc(OC)c3c(c2OC)OCO3)cc1`, the GI50 in experiment [1] was 312 nM; in experiment [2], 9160 nM; in [3] it was 424 nM; in experiment [4], 1450 nM; in experiment [5] it was 480 nM; in experiment [6] it was 409 nM. In addition, the GI50 in experiment [7] was 2020 nM; in experiment [8], 684 nM; in experiment [9], 4860 nM; in experiment [10], 817 nM. In addition, the TGI in [1] is 6.38 µM; in [2], over 100 µM; in experiment [3] it was 19.2 µM; in experiment [4], over 66.1 µM; in experiment [5], 35.2 µM; in experiment [6], 15.9 µM. Moreover, the TGI in experiment [7] was over 69 µM; in experiment [8], 17.7 µM; in experiment [9], 83.7 µM; in experiment [10] it was 11 µM.

Turning to `Cc1ccc(-c2cc(-c3ccc(C)cc3)nc(NCCNc3ccnc4cc(Cl)ccc34)n2)cc1`, the GI50 in experiment [1] is 1890 nM; in [2], 1680 nM; in experiment [3], 1600 nM; in [4], 1890 nM; in [5], 1750 nM; in experiment [6], 1910 nM. Further, the GI50 was 1880 nM in experiment [7], 1830 nM in experiment [8], 1630 nM in [9] and 1720 nM in [10]. The TGI is 3.46 µM in [1]; 3.13 µM in [2]; 3.44 µM in [3]; 3.8 µM in experiment [4]; 3.64 µM in experiment [5]; 3.7 µM in experiment [6]. Also, the TGI was 3.88 µM in experiment [7], 3.44 µM in experiment [8], 3.29 µM in [9] and 3.36 µM in [10].

For the compound `Cc1cc(N/N=C/c2nc(-c3ccc(Br)cc3)oc2C)c2cc(Cl)ccc2n1`, the GI50 in experiment [1], in [2], in experiment [3], in experiment [4], in experiment [5] and in [6] was over 100000 nM throughout. Also, the GI50 in experiment [7], in [8], in experiment [9] and in experiment [10] was over 100000 nM throughout. The TGI in experiment [1], in experiment [2], in experiment [3], in experiment [4], in [5] and in [6] was over 100 µM each time. Besides, the TGI in [7], in experiment [8], in experiment [9] and in experiment [10] was over 100 µM each time.

On to `CCCCCCCCCCCCCCCCCC(=O)OCC(COC1OC(COP(=O)(O)O)C(O)C(O)C1O)OC(=O)CCCCCCCCCCCCCCCCC` (centres undefined), for which the TGI was determined as 12.5 µM in experiment [1]; 12.7 µM in [2]; 16.2 µM in experiment [3]; 15.1 µM in [4]; 17.1 µM in [5]; 23.4 µM in [6]. Moreover, the TGI in [7] was 17.8 µM; in experiment [8], 16.6 µM; in experiment [9], 14.1 µM; in experiment [10], 14.7 µM.

In the case of `C/C(=N\Nc1ccc2ccccc2n1)c1ccccn1`, the GI50 in experiment [1] is 239 nM; in [2], under 38.9 nM; in experiment [3], under 47.2 nM; in experiment [4] it was 90 nM; in [5], 102 nM; in [6], under 50.7 nM. In addition, the GI50 was under 49.2 nM in experiment [7], 103 nM in [8], 91.4 nM in experiment [9] and 46.2 nM in experiment [10]. Further, the TGI in experiment [1] stood at 2.48 µM; in experiment [2] it was 1.32 µM; in experiment [3] it was 3.03 µM; in experiment [4], 11 µM; in experiment [5] it was 5.21 µM; in [6] it was 3.71 µM. Besides, the TGI in [7] turned out to be 12.8 µM; in [8], 2.24 µM; in experiment [9], 14.9 µM; in [10] it was 1.48 µM.

For the compound `CCN(C(=O)N1CCN(c2cc3c(cc2F)c(=O)c(C(=O)O)cn3C2CC2)CC1)c1nc(-c2ccc(C)cc2)cs1`, the TGI in [1] was 0.486 µM; in experiment [2] it was over 100 µM; in experiment [3] it was over 40.1 µM; in experiment [4], over 100 µM; in [5] it was over 100 µM; in experiment [6], 11.9 µM. Further, the TGI is over 100 µM in experiment [7], over 100 µM in experiment [8], over 100 µM in experiment [9] and over 20.9 µM in experiment [10]. The GI50 was 976 nM in [2]; 1040 nM in [3]; 1410 nM in experiment [4]; 1310 nM in experiment [5]; 356 nM in experiment [6]; 1410 nM in experiment [7]. The GI50 in experiment [8] was 858 nM; in experiment [9] it was 365 nM; in [10], 1040 nM.

`O=C(c1ccccc1)C(CN1CCOCC1)c1ccccc1` (centres undefined): the GI50 in experiment [1] was 2490 nM; in experiment [2], 1300 nM; in [3], 609 nM; in [4], 6500 nM; in [5], 1250 nM; in [6], 2510 nM. Further, the GI50 is 1520 nM in experiment [7], 1760 nM in experiment [8], 1730 nM in [9] and 1710 nM in [10]. Further, the TGI in [1] was determined as 11.2 µM; in experiment [2], 2.71 µM; in experiment [3], 2.08 µM; in [4] it was 19.7 µM; in experiment [5] it was 2.66 µM; in experiment [6], 7.76 µM. In addition, the TGI in experiment [7] came to 3.22 µM; in [8], 3.77 µM; in experiment [9] it was 4.47 µM; in experiment [10], 4.09 µM.
